# Reference: patent US10905729B1, “Formulations and methods for wound treatment” (Sorush, LLC, priority 2011, dated 2021)
# Experiment: Chemical analysis of the extract for the antibiotics (HPLC-MS / MS)
# Type: physicochemical
# Conditions: added at 0.003% each; analysed about two weeks after formation of the extract
# Experimental: 10 grams of dried Lawsonia inermis leaves (www.ETSY.com) were placed in a beaker and 100 ml of distilled water were added. The mixture was stirred for 2 hours at room temperature to obtain an aqueous Lawsonia inermis extract designated as a 10% w/w or w/v extract. […] The Lawsonia inermis extract was analyzed for antibiotic activity and for the presence of the antibiotics about two weeks after formation of the extract.
# A chemical analysis was performed on the extract. […] Polymyxin B analysis was performed on a Thermo Finnigan LCQ MS.
row,Substance,antibiotic not detected in the extract at a level of [nanograms/ml]
1,Gentamicin [Gentamycin],< 15.0
2,Polymyxin B,< 960
